Usually IC50 stands for the concentration needed to halve the response being measured. What is called GI50 is the concentration at which growth is held to half of that of the control.

Data on 16 compounds can be found in US20240246940A1, “HETEROARYL DERIVATIVE COMPOUND AND USE THEREOF” (VORONOI INC., priority 2021, published 2024).

In one experiment the target is T1, HER2 (Homo sapiens, UniProt P04626).
T1 construct: purchased Reaction Biology Corp
The experiment in a line: Biochemical kinase assay for HER2 (Reaction Biology Corp), ATP 10 μM, 10-dose IC50. On the procedure:
(§1) Biochemical kinase assays for HER2 and EGFR were performed by Reaction Biology Corp (San Diego, USA).

The subject of experiment [1] is HaCaT cells (EGFR expressing cell line). The experiment in a line: HaCaT cell proliferation inhibitory activity (CellTiter-Glo, 72 hours). The class given is cell-based. The note with it: Homo sapiens. Put shortly: (§2)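 SK-BR-3 and BT-474 cells were plated at 5000/well 48 h ahead, and N-87 (5000) and HaCaT (3000) 24 h ahead. Compounds were tested at 11 DMSO-diluted concentrations: 0.2 nM–10 μM for SK-BR-3/BT-474, […]–5 μM for N-87 and 0.8 nM–45 μM for HaCaT. GI50 came from growth % versus control, in triplicate.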
For orientation: Cellular ATP, detected with luciferase, serves as a proxy for viable cell number.

Experiment [2] relates to Ba/F3 cells expressing HER2 T798I. The experiment in a line: Transduced Ba/F3 cell proliferation inhibitory activity, HER2 T798I. The note with it: Mus musculus, BaF3, 72 hours. The class given is cell-based. On the procedure:
(§3) For Ba/F3 cells, RPMI-1640 supplemented with 10% FBS and 5 ng/ml IL-3 (R&D Systems) was used. Transduced Ba/F3 cells were cultured by adding 1 μg/ml puromycin (Invitrogen) to the same medium.
(§4) 3000 to 5000 cells were aliquoted into each well of a white clear bottom 96 well plate (Corning) 24 hours before treatment with the compounds of Examples. The compounds of Examples were diluted in dimethyl sulfoxide (three-fold dilution, a total of 12 concentrations) and injected each in an amount of 1 μl to a final concentration of 0.2 nM to 5 μM. For the measurement of living cells, the cells were stored at room temperature for 10 minutes using CellTiter-Glo luminescent cell-viability reagent (Promega) in 72 hours after treatment with the compounds of Examples, and the luminescence intensity thereof was measured using a reader (SynergyNeo, Biotek). Each test was repeated three times. The result values were calculated as a cell growth rate (%) compared to those of the control group. A graph was created using the GraphPad Prism version 8.3.0 program, and GI50 values were calculated.

In the next experiment the target is T2, EGFR (Homo sapiens, UniProt P00533).
T2 construct: purchased Reaction Biology Corp
The experiment in a line: Biochemical kinase assay for EGFR (Reaction Biology Corp), ATP 10 μM, 10-dose IC50. On the procedure: as §1

Experiment [3] concerns Ba/F3 cells expressing HER2 WT. The experiment in a line: Transduced Ba/F3 cell proliferation inhibitory activity, HER2 WT. The class given is cell-based. The note with it: Mus musculus, BaF3, 72 hours. The method, then:
as §3, §4

For experiment [4], the system named is SK-BR-3 cells (HER2 overexpressing cell line). The experiment in a line: SK-BR-3 cell proliferation inhibitory activity (CellTiter-Glo, 120 hours). As to conditions: Homo sapiens. The class given is cell-based. Put shortly:
as §2

The subject of experiment [5] is Ba/F3 cells expressing HER2 T862A. The experiment in a line: Transduced Ba/F3 cell proliferation inhibitory activity, HER2 T862A. It counts as cell-based. As to conditions: Mus musculus, BaF3, 72 hours. On the procedure:
as §3, §4

Experiment [6] has as its system Ba/F3 cells expressing HER2 L756S. The experiment in a line: Transduced Ba/F3 cell proliferation inhibitory activity, HER2 L756S. The class given is cell-based. As to conditions: Mus musculus, BaF3; Ba/F3 HER2 L755S, 72 hours. The method, then: as §3, §4
The test system of experiment [7] is N-87 cells (HER2 overexpressing cell line). The experiment in a line: N-87 cell proliferation inhibitory activity (CellTiter-Glo, 72 hours). It counts as cell-based. Put shortly: as §2
For experiment [8], the system named is BT-474 cells (HER2 overexpressing cell line). The experiment in a line: BT-474 cell proliferation inhibitory activity (CellTiter-Glo, 120 hours). The class given is cell-based. The note with it: Homo sapiens. Put shortly:
as §2

Experiment [9] deals with Ba/F3 cells expressing HER2 L869R. The experiment in a line: Transduced Ba/F3 cell proliferation inhibitory activity, HER2 L869R. The note with it: Mus musculus, BaF3, 72 hours. The class given is cell-based. On the procedure:
as §3, §4

T1 sequence (P04626 23-1255): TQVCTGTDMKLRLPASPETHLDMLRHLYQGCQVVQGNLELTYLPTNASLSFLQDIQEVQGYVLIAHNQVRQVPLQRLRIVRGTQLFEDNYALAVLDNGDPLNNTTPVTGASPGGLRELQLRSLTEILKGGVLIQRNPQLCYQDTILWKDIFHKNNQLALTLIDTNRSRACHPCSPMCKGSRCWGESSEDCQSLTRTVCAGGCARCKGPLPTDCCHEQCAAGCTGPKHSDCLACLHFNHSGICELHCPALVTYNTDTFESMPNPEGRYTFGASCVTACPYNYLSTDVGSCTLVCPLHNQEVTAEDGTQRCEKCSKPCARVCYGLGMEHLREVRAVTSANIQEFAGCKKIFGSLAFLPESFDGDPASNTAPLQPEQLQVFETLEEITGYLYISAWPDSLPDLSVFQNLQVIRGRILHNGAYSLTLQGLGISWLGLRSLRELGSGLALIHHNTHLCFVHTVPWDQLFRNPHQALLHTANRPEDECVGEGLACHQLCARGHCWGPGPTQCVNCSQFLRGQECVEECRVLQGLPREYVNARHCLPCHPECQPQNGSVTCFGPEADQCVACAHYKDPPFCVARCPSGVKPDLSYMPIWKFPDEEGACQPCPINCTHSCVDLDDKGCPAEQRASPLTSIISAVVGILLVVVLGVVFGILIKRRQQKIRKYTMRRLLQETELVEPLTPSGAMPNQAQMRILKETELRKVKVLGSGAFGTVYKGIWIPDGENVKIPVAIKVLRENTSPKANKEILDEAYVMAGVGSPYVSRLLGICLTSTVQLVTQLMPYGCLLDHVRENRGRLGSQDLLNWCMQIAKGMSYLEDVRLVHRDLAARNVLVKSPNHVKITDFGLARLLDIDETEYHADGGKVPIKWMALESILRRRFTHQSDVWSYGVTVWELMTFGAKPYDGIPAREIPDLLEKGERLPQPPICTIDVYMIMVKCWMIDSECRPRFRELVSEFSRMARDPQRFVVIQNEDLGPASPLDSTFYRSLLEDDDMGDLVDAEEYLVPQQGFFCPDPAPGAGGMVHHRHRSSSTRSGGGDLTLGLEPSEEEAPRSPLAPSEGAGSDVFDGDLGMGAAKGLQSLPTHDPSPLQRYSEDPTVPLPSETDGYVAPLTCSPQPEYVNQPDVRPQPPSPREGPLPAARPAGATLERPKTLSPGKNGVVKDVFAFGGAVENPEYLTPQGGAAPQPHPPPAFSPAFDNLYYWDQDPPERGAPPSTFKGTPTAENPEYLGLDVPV
T2 sequence (P00533 25-1210): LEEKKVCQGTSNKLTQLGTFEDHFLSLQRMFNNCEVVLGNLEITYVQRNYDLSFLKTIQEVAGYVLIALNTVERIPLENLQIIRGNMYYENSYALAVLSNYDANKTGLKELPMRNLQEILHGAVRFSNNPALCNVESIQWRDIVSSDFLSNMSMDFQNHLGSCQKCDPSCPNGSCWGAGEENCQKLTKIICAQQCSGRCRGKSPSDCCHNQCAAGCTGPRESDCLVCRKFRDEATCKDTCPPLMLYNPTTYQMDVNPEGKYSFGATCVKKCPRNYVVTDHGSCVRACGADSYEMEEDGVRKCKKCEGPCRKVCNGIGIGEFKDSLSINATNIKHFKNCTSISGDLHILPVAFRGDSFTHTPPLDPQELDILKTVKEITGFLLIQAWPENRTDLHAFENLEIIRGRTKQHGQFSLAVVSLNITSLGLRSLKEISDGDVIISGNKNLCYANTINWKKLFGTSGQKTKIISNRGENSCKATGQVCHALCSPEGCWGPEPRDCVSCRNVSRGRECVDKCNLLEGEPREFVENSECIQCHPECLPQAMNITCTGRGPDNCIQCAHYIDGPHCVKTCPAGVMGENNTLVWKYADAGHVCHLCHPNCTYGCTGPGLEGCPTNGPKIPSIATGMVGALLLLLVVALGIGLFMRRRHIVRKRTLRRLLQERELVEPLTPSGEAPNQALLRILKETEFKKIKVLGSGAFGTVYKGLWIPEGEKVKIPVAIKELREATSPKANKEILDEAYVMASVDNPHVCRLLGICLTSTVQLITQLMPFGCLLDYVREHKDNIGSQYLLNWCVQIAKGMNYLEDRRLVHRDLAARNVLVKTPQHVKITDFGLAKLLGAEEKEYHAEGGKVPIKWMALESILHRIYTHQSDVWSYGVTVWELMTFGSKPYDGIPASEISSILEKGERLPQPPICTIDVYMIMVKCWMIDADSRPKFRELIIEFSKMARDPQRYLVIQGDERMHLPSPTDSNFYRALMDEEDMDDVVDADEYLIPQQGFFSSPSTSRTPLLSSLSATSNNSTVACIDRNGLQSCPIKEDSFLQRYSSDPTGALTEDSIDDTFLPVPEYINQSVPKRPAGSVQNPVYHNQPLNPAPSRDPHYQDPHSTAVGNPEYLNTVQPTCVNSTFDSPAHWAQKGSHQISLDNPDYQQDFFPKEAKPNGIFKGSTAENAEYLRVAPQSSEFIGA

As for `COc1cc2ncnc(Nc3cc(-c4ccc(F)cc4F)ccc3OC)c2cc1NC(=O)/C=C/[C@H]1CCCN1C` [Example 305, (R,E)-N-(4-((2′,4′-difluoro-4-methoxy-[1,1′-biphenyl]-3-yl)amino)-7-methoxyquinazolin-6-yl)-3-(1-methylpyrrolidin-2-yl)acrylamide], the IC50 on HER2 and at EGFR was at most 50 nM throughout. Moreover, the GI50 is at most 150 nM in experiment [1]; at most 50 nM in experiment [2]; at most 50 nM in experiment [3]; at most 150 nM in experiment [4]; at most 50 nM in experiment [5]; at most 50 nM in experiment [6]. Moreover, the GI50 in experiment [7] and in experiment [8] was at most 150 nM throughout.

For `C=CC(=O)N1CCC(Oc2cc3c(Nc4cc(-c5cccs5)ccc4OC)ncnc3cc2OC)CC1` [Example 78, 1-(4-((7-methoxy-4-((2-methoxy-5-(thiophen-2-yl)phenyl)amino)quinazolin-6-yl)oxy)piperidin-1-yl)prop-2-en-1-one], the GI50 is at most 50 nM in [2], at most 150 nM in [4] and at most 50 nM in experiment [9].

With `C=CC(=O)N1CCC(Nc2cc3c(Nc4cc(-c5ccco5)ccc4OC)ncnc3cc2OCC)CC1` [Example 300, 1-(4-((7-ethoxy-4-((5-(furan-2-yl)-2-methoxyphenyl)amino)quinazolin-6-yl)amino)piperidin-1-yl)prop-2-en-1-one], the GI50 was at most 150 nM in experiment [1]; 100 to 500 nM in [2]; at most 50 nM in [3]; at most 50 nM in experiment [5]; at most 50 nM in experiment [6]; at most 150 nM in [7]. Also, the GI50 in experiment [8] was at most 150 nM.

Compound `C=CC(=O)N1CCC(Oc2cc3c(Nc4cc(-c5cc(C)co5)ccc4OC)ncnc3cc2OC)CC1` [Example 90, 1-(4-((7-methoxy-4-((2-methoxy-5-(4-methylfuran-2-yl)phenyl)amino)quinazolin-6-yl)oxy)piperidin-1-yl)prop-2-en-1-one] came in with an IC50 at HER2 of at most 50 nM.

As for `C=CC(=O)N1CCC(Oc2cc3c(Nc4cc(-c5ccc(F)cc5F)ccc4OC)ncnc3cc2OC)C(F)C1` (stereo not shown) [Example 143, 1-(4-((4-((2′,4′-difluoro-4-methoxy-[1,1′-biphenyl]-3-yl)amino)-7-methoxy-quinazolin-6-yl)oxy)-3-fluoropiperidin-1-yl)prop-2-en-1-one], the GI50 is at most 150 nM in experiment [1]; at most 150 nM in experiment [4]; at most 50 nM in experiment [5]; at most 50 nM in [6]; at most 150 nM in experiment [7]; at most 150 nM in [8]. Further, the GI50 in experiment [9] is at most 50 nM.

For the compound `COc1cc2ncnc(Nc3cc(-c4ccc(F)cc4F)ccc3OC)c2cc1NC(=O)/C(F)=C\[C@H]1CCCN1C` [Example 304, (R,E)-N-(4-((2′,4′-difluoro-4-methoxy-[1,1′-biphenyl]-3-yl)amino)-7-methoxyquinazolin-6-yl)-2-fluoro-3-(1-methylpyrrolidin-2-yl)acrylamide], the IC50 against HER2 and against EGFR was at most 50 nM throughout. Further, the GI50 in [1], in experiment [7] and in experiment [8] was at most 150 nM in each case.

As to `C=CC(=O)N1CCC(Oc2cc3c(Nc4cc(-c5ccco5)ccc4OC)ncnc3cc2OC)C(F)C1` (stereo not shown) [Example 112, 1-(3-fluoro-4-((4-((5-(furan-2-yl)-2-methoxyphenyl)amino)-7-methoxy-quinazolin-6-yl)oxy)piperidin-1-yl)prop-2-en-1-one], the 50% growth inhibitory concentration (GI50) in experiment [1] is at most 150 nM; in experiment [4], at most 150 nM; in [5], at most 50 nM; in experiment [6], at most 50 nM; in [7], at most 150 nM; in experiment [8], at most 150 nM. The GI50 in experiment [9] was at most 50 nM.

With `C=CC(=O)N1CCC(F)(F)C(Oc2cc3c(Nc4cc(-c5ccco5)ccc4OC)ncnc3cc2OC)C1` (stereo not shown) [Example 113, 1-(4,4-difluoro-3-((4-((5-(furan-2-yl)-2-methoxyphenyl)amino)-7-methoxy-quinazolin-6-yl)oxy)piperidin-1-yl)prop-2-en-1-one], the GI50 in experiment [1], in experiment [4], in experiment [7] and in experiment [8] was at most 150 nM each time.

Turning to `C=CC(=O)N1CC(Oc2cc3c(Nc4cc(-c5cccc(C(F)(F)F)c5F)ccc4OC)ncnc3cc2OC)C1` [Example 17, 1-(3-((4-((2′-fluoro-4-methoxy-3′-(trifluoromethyl)-[1,1′-biphenyl]-3-yl)amino)-7-methoxy-quinazolin-6-yl)oxy)azetidin-1-yl)prop-2-en-1-one], the GI50 in [1] was 150 to 1000 nM; in [4] it was at most 150 nM; in experiment [7], at most 150 nM; in [8] it was at most 150 nM.

Turning to `C=CC(=O)N1CCC(Oc2cc3c(Nc4cc(-c5cccc(N)c5F)ccc4OC)ncnc3cc2OC)CC1` [Example 163, 1-(4-((4-((3′-amino-2′-fluoro-4-methoxy-[1,1′-biphenyl]-3-yl)amino)-7-methoxy-quinazolin-6-yl)oxy)piperidin-1-yl)prop-2-en-1-one], the 50% growth inhibitory concentration (GI50) in [1] is 150 to 1000 nM; in [4], at most 150 nM; in experiment [7], at most 150 nM; in [8], 150 to 1000 nM.

With `C=CC(=O)N1CC[C@H](Oc2cc3c(Nc4cc(-c5ccc(F)cc5F)ccc4OC)ncnc3cc2OC)[C@H](F)C1` (relative stereo) [Example 182, 1-(cis-4-((4-((2′,4′-difluoro-4-methoxy-[1,1′-biphenyl]-3-yl)amino)-7-methoxy-quinazolin-6-yl)oxy)-3-fluoropiperidin-1-yl)prop-2-en-1-one], the GI50 in [1], in experiment [4], in [7] and in [8] was at most 150 nM throughout.

On to `C=CC(=O)N1CCC(Nc2cc3c(Nc4cc(-c5ccc(F)cc5F)ccc4OC)ncnc3cc2OC2CCOC2)CC1` (stereo not shown) [Example 286, 1-(4-((4-((2′,4′-difluoro-4-methoxy-[1,1′-biphenyl]-3-yl)amino)-7-((tetrahydrofuran-3-yl)oxy)quinazolin-6-yl)amino)piperidin-1-yl)prop-2-en-1-one], for which the GI50 in [1], in experiment [4], in experiment [7] and in experiment [8] was at most 150 nM in each case.

Turning to `C=CC(=O)N1CCC(Oc2cc3c(Nc4cc(-c5cccc(C(F)(F)F)c5F)ccc4OC)ncnc3cc2OC)CC1` [Example 138, 1-(4-((4-((2′-fluoro-4-methoxy-3′-(trifluoromethyl)-[1,1′-biphenyl]-3-yl)amino)-7-methoxy-quinazolin-6-yl)oxy)piperidin-1-yl)prop-2-en-1-one], the GI50 in experiment [1] was 150 to 1000 nM; in experiment [4], at most 150 nM; in experiment [7], at most 150 nM; in experiment [8], at most 150 nM.

On HER2, `C=CC(=O)N1CCC(Oc2cc3c(Nc4cc(-c5ccc(F)cc5F)c(F)cc4OC)ncnc3cc2OC)CC1` [Example 157, 1-(4-((7-methoxy-4-((2′,4′,6-trifluoro-4-methoxy-[1,1′-biphenyl]-3-yl)amino)quinazolin-6-yl)oxy)piperidin-1-yl)prop-2-en-1-one] registered an IC50 of at most 50 nM. Besides, the GI50 in experiment [1], in [7] and in experiment [8] was at most 150 nM each time.

With `C=CC(=O)N1CCC(Oc2cc3c(Nc4cc(-c5ccsc5)ccc4OC)ncnc3cc2OC)CC1` [Example 79, 1-(4-((7-methoxy-4-((2-methoxy-5-(thiophen-3-yl)phenyl)amino)quinazolin-6-yl)oxy)piperidin-1-yl)prop-2-en-1-one], the GI50 in experiment [1], in experiment [4], in experiment [7] and in experiment [8] was at most 150 nM throughout.

In the case of `C=CC(=O)N1CC[C@H](Oc2cc3c(Nc4cc(-c5ccco5)ccc4OC)ncnc3cc2OC)[C@H](F)C1` (relative stereo) [Example 181, 1-(cis-3-fluoro-4-((4-((5-(furan-2-yl)-2-methoxyphenyl)amino)-7-methoxy-quinazolin-6-yl)oxy)piperidin-1-yl)prop-2-en-1-one], the GI50 in experiment [1], in [4], in experiment [7] and in experiment [8] was at most 150 nM each time.
